# Test results reported in paper PMC9288506, “Compounds activating VCP D1 ATPase enhance both autophagic and proteasomal neurotoxic protein clearance” (Nature Communications, 2022).
# What was measured:
# Test in all cases: biochemical
# Design in all cases: Thermo Fisher in vitro kinase panel, per cent inhibition of kinase activity at 10 uM
# STK17A (DRAK1) = STK17A (DRAK1) (Homo sapiens, UniProt Q9UEE5)
# Procedure: (§1) Kinase profiling of SMER28 and analogs SMER28 and analogs were tested at 10 µM in a panel of 123 kinases at ThermoFisher Scientific. Follow-up of selected kinases for SMER28 and analogs was also performed at ThermoFisher Scientific. Data are shown in Supplementary Data 2 and 3. […] An inhibition of PIK3C could induce autophagy, mediated by signaling through the AKT/mTOR axis[45].
# ABL2 (Arg) = ABL2 (Arg) (Homo sapiens, UniProt P42684)
# Procedure: as §1
# MINK1 = MINK1 (Homo sapiens, UniProt Q8N4C8)
# Procedure: as §1
# CHEK1 (CHK1) = CHEK1 (CHK1) (Homo sapiens, UniProt O14757)
# Procedure: as §1
# TGFBR1 (ALK5) = TGFBR1 (ALK5) (Homo sapiens, UniProt P36897)
# Procedure: as §1
# YES1 = YES1 (Homo sapiens, UniProt P07947)
# Procedure: as §1
# TBK1 = TBK1 (Homo sapiens, UniProt Q9UHD2)
# Procedure: as §1
# CSNK1G1 (CK1 gamma 1) = CSNK1G1 (CK1 gamma 1) (Homo sapiens, UniProt Q9HCP0)
# Procedure: as §1
# ULK2 = ULK2 (Homo sapiens, UniProt Q8IYT8)
# Procedure: as §1
# FGFR1 V561M = FGFR1 V561M (Homo sapiens, UniProt P11362, V561M)
# Procedure: as §1
# TNIK = TNIK (Homo sapiens, UniProt Q9UKE5)
# Procedure: as §1
# CSF1R (FMS) = CSF1R (FMS) (Homo sapiens, UniProt P07333)
# Procedure: as §1
# [1] = molecular target: T1, MAPK14 (p38 alpha) Direct (Homo sapiens, UniProt Q16539)
# T1 construct: Direct
# Procedure: as §1
# [2] = molecular target: PIK3CB/PIK3R1 (p110 beta/p85 alpha) (Homo sapiens, UniProt P42338)
# Procedure: as §1
# PTK2 (FAK) = PTK2 (FAK) (Homo sapiens, UniProt Q05397)
# Procedure: as §1
# SRPK1 = SRPK1 (Homo sapiens, UniProt Q96SB4)
# Procedure: as §1
# MAPKAPK2 = MAPKAPK2 (Homo sapiens, UniProt P49137)
# Procedure: as §1
# FLT1 (VEGFR1) = FLT1 (VEGFR1) (Homo sapiens, UniProt P17948)
# Procedure: as §1
# CAMK2B (CaMKII beta) = CAMK2B (CaMKII beta) (Homo sapiens, UniProt Q13554)
# Procedure: as §1
# CSNK2A2 (CK2 alpha 2) = CSNK2A2 (CK2 alpha 2) (Homo sapiens, UniProt P19784)
# Procedure: as §1
# MAPK8 (JNK1) = MAPK8 (JNK1) (Homo sapiens, UniProt P45983)
# Procedure: as §1
# STK4 (MST1) = STK4 (MST1) (Homo sapiens, UniProt Q13043)
# Procedure: as §1
# EGFR (ErbB1) T790M L858R = EGFR (ErbB1) T790M L858R (Homo sapiens, UniProt P00533, L858R/T790M)
# Procedure: as §1
# MARK2 = MARK2 (Homo sapiens, UniProt Q7KZI7)
# Procedure: as §1
# TYRO3 (RSE) = TYRO3 (RSE) (Homo sapiens, UniProt Q06418)
# Procedure: as §1
# TYRO3 (RSE), sequence (Q06418 whole entry): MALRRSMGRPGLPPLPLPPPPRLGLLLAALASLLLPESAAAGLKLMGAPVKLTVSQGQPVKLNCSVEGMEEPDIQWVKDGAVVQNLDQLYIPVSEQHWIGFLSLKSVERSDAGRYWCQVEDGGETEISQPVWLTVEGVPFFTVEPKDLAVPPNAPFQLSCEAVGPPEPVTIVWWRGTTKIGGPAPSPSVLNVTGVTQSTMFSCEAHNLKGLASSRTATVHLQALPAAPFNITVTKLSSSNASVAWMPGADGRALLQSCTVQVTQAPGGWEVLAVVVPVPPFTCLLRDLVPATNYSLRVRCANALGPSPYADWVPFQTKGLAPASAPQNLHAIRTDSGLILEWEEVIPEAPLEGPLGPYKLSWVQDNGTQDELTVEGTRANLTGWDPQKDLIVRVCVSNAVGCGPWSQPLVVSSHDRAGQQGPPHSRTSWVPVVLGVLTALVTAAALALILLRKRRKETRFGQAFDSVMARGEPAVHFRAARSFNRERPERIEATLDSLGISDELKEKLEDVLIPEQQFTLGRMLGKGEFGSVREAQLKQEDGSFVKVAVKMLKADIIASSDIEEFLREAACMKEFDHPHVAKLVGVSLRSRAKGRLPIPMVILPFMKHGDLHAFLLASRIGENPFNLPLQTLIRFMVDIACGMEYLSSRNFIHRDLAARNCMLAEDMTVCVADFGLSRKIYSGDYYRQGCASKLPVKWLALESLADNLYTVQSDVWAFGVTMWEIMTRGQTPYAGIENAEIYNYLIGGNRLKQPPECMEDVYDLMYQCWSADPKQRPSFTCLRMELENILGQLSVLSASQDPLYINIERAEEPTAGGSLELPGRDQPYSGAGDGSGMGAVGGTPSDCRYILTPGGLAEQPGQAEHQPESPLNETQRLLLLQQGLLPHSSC
# STK17A (DRAK1), sequence (Q9UEE5 whole entry): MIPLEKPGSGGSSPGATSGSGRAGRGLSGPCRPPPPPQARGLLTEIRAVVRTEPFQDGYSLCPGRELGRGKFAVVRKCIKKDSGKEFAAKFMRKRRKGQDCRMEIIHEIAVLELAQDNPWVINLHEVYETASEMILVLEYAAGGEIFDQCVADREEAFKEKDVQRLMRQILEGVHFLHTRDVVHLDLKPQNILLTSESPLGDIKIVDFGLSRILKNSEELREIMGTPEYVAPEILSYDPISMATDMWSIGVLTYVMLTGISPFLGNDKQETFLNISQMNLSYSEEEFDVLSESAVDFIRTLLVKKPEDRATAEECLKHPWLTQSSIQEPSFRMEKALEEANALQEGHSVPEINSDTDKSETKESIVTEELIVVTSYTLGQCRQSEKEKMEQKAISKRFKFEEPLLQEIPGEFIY
# MAPK8 (JNK1), sequence (P45983 whole entry): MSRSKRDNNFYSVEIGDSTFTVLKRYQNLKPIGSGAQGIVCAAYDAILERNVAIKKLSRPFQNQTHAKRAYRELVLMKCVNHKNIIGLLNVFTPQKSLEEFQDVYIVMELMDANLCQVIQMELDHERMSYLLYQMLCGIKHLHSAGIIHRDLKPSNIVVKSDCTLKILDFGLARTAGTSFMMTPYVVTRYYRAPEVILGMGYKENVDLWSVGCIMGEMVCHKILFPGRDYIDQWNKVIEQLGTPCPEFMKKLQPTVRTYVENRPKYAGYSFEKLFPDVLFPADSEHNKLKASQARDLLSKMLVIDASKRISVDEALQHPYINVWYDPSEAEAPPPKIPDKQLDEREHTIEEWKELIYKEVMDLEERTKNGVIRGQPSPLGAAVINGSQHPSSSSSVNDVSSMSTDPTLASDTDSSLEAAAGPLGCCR
# MARK2, sequence (Q7KZI7 whole entry): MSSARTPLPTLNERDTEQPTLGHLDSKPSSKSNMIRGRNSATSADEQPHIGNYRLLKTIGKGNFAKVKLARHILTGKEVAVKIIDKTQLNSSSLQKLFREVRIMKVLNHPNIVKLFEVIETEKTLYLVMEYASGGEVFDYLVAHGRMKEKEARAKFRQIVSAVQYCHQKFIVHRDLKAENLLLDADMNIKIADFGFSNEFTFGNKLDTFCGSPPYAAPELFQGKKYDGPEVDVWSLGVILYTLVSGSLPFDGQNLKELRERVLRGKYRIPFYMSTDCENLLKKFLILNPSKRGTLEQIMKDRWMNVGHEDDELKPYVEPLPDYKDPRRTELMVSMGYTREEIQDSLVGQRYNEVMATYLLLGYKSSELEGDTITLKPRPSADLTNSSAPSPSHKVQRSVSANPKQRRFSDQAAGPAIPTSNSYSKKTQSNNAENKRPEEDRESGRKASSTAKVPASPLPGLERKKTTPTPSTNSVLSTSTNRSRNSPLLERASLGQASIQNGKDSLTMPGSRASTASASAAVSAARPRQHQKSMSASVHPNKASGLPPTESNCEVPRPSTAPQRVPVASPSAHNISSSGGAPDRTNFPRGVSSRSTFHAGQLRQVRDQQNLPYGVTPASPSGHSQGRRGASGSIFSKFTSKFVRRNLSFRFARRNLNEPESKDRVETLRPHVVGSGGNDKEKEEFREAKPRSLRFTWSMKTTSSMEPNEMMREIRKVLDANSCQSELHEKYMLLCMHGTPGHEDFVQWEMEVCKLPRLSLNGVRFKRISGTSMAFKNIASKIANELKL
# CSNK2A2 (CK2 alpha 2), sequence (P19784 whole entry): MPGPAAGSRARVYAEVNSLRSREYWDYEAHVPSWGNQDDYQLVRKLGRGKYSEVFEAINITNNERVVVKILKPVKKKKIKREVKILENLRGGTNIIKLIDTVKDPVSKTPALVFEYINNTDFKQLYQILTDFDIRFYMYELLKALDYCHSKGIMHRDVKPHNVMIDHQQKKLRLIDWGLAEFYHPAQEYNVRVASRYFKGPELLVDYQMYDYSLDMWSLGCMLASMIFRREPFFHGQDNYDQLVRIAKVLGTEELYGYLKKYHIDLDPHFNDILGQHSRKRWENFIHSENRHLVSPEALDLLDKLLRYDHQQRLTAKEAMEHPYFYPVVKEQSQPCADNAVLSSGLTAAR
# ABL2 (Arg), sequence (P42684 whole entry): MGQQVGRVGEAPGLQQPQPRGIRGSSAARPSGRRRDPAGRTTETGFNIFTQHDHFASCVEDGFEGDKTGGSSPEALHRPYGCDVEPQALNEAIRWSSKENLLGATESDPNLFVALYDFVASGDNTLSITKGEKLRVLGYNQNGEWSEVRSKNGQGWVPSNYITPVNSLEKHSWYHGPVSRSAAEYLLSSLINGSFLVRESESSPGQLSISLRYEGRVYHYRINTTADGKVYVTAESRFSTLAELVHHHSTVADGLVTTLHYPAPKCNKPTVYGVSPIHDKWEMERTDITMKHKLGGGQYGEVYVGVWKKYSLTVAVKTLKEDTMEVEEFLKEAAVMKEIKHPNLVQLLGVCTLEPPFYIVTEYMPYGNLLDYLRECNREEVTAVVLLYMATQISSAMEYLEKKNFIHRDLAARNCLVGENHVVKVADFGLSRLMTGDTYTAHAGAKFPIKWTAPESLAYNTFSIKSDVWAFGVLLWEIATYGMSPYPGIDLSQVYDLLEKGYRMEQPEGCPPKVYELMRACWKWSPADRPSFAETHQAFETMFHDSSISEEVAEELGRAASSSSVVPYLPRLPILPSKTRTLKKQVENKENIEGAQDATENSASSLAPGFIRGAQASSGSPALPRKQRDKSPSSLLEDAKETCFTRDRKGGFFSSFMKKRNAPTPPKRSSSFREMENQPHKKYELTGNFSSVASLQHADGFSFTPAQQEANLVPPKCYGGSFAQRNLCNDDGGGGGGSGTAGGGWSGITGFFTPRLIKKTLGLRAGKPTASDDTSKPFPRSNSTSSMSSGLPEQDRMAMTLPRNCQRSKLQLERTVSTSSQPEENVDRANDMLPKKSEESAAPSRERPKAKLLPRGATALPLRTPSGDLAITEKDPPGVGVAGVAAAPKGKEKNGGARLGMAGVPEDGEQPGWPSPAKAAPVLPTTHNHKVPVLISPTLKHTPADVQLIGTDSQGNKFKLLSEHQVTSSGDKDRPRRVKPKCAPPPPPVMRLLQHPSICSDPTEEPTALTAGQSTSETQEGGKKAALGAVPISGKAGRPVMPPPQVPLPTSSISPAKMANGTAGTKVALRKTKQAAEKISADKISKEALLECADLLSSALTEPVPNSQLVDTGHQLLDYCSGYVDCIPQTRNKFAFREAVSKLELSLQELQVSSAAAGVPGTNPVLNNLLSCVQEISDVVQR
# TGFBR1 (ALK5), sequence (P36897 whole entry): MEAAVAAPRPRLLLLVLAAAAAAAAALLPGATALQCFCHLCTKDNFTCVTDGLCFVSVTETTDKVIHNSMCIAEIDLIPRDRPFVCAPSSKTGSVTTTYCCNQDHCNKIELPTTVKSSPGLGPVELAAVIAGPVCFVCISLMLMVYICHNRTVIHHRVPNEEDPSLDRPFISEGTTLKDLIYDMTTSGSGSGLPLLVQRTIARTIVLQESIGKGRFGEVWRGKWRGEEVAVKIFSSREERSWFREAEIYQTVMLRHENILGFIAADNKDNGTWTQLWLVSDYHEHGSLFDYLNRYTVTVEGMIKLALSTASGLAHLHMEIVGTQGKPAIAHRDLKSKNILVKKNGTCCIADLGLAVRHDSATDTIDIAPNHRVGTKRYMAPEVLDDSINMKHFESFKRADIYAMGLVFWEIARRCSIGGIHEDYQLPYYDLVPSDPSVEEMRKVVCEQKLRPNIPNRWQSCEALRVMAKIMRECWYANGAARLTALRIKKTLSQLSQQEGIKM
# CHEK1 (CHK1), sequence (O14757 whole entry): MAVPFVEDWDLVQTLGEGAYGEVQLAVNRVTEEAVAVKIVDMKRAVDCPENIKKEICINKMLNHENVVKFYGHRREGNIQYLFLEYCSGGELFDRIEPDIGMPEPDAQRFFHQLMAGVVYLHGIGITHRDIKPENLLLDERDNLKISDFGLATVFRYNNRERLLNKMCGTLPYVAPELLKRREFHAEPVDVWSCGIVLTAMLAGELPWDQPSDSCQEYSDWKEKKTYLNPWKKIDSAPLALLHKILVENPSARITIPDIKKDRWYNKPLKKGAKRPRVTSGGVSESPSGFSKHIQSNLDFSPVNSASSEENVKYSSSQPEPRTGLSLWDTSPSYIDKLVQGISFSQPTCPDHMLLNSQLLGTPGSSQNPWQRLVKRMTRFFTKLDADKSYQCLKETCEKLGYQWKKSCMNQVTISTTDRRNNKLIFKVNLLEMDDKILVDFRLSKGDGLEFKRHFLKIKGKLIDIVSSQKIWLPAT
smiles,measurement,setting,value
C=CCNc1ncnc2ccc(Br)cc12 [SMER28],inhibition at 10 µM,STK17A (DRAK1),34%
same,inhibition at 10 µM,ABL2 (Arg),3%
same,inhibition at 10 µM,MINK1,45%
same,inhibition at 10 µM,CHEK1 (CHK1),-8%
same,inhibition at 10 µM,TGFBR1 (ALK5),6%
same,inhibition at 10 µM,YES1,13%
same,inhibition at 10 µM,TBK1,4%
same,inhibition at 10 µM,CSNK1G1 (CK1 gamma 1),31%
same,inhibition at 10 µM,ULK2,3%
same,inhibition at 10 µM,FGFR1 V561M,9%
same,inhibition at 10 µM,TNIK,38%
same,inhibition at 10 µM,CSF1R (FMS),39%
same,inhibition at 10 µM,[1],7%
same,inhibition at 10 µM,[2],23%
same,inhibition at 10 µM,PTK2 (FAK),8%
same,inhibition at 10 µM,SRPK1,5%
same,inhibition at 10 µM,MAPKAPK2,0%
same,inhibition at 10 µM,FLT1 (VEGFR1),9%
same,inhibition at 10 µM,CAMK2B (CaMKII beta),4%
same,inhibition at 10 µM,CSNK2A2 (CK2 alpha 2),10%
same,inhibition at 10 µM,MAPK8 (JNK1),-2%
same,inhibition at 10 µM,STK4 (MST1),11%
same,inhibition at 10 µM,EGFR (ErbB1) T790M L858R,15%
same,inhibition at 10 µM,MARK2,9%
same,inhibition at 10 µM,TYRO3 (RSE),11%
